Experiment [1] deals with PEG-3. The experiment in a line: Peg3 promoter luciferase inhibitors, potency, dose response, cell-based, HeLa, CREF/GAPDH counter-screen panel (AID 624167). The conditions noted are these: HeLa PEG-Prom luciferase reporter, overnight, CREF/GAPDH counter-screens. (A counterscreen serves to expose hits that act by an unwanted route or on another target.)
For experiment [2], the target named is PEG-3 (UniProt Q6IN02). Described as above. The conditions noted are these: HeLa PEG-Prom luciferase reporter, overnight, CREF/GAPDH counter-screens, mean of runs.
Chain of PEG-3 (UniProt Q6IN02) (Q6IN02 whole entry, looked up): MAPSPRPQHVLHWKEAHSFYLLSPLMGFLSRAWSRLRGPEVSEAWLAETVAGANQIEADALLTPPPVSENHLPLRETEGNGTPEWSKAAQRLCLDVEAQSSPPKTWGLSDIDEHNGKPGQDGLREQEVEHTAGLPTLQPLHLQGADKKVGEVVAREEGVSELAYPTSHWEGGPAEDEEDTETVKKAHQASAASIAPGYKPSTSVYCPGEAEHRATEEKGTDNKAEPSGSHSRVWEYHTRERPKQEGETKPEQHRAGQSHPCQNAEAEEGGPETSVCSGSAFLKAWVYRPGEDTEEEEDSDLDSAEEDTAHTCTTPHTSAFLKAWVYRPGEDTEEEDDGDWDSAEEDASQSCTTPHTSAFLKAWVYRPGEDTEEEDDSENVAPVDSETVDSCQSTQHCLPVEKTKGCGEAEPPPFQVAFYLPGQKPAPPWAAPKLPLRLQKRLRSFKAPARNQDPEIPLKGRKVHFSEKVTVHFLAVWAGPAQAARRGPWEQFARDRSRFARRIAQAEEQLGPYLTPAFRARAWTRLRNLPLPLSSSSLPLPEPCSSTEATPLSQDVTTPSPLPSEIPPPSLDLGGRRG
The mark [3] stands for this setting: run 1, dose range 1, individual replicate IC50 per panel.
The mark [4] stands for this setting: run 2, dose range 1, individual replicate IC50 per panel.

The term IC50 denotes the concentration at which inhibition is half-maximal.

Calls of active or inactive are those of the source.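 The calls were made as follows: active = mean IC50 for reducing PEG3 promoter reporter signal at or below a set limit, with IC50 above the limit in both counter screens; inactive = the rest, including counter screen hits.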

Consider `CC(C)(c1ccccc1)c1ccc(OCC(O)CNC2CCN(Cc3ccccc3)CC2)cc1` (centres undefined), for which the half-maximal inhibitory concentration (IC50) in the experiment on PEG-3 [1] (setting [3]) is 21.9 µM; with PEG-3 [1] (setting [4]), 9.42 µM; at PEG-3 [2], 15.7 µM.
Taken in the same sequence, the figures for `O=C(C[C@H]1C[C@H](C(=O)N2CCCCC2)[C@@]2(CCc3ccccc3)c3[nH]c4ccc(Cl)cc4c3CCN2C1=O)NCCc1ccccn1` were 17.8 µM, 25.7 µM and “inactive”.
As for `CCCCCCCNC(=O)C1(CC2CC(c3ccccc3)=NO2)CCNCC1` (centres undefined), the IC50 with PEG-3 [1] (setting [3]) is 35.4 µM; in the experiment with PEG-3 [1] (setting [4]), 16.7 µM. At PEG-3 [2], the IC50 result was “inactive”.
For `CCCCC(=O)NC(c1ccccc1Cl)c1ccc2cccnc2c1O` (centres undefined), in that order: 2.98 µM, over 100 µM and “inactive”.
Taken in the same sequence, the figures for `COc1ccc(C(=O)Nc2cccc(C(=O)N/N=C/c3ccc(OC)cc3OC)c2)cc1` were 28.1 µM, 38 µM and “inactive”.
`O=[N+]([O-])c1ccc(-c2nc(Nc3cccc(O)c3)c3ccccc3n2)cc1`: the concentration for half-maximal inhibition (IC50) was 13.4 µM in the experiment on PEG-3 [1] (setting [3]), 12.5 µM in the experiment with PEG-3 [1] (setting [4]) and 12.9 µM on PEG-3 [2].
For `COc1cc(-c2cc(C(=O)N(C)Cc3ccccc3)c3ccccc3n2)cc(OC)c1OC`, in that order: 69.3 µM, 72.2 µM and “inactive”.
For `CC(=O)OC(C)(C)/C=C/C(=O)C(C)(O)C1[C@H](O)C[C@@]2(C)C3CC=C4C(CC[C@@H](O)C4(C)C)[C@]3(CO)C(=O)C[C@]12C` (some centres undefined), in that order: 47 µM, under 0.2 µM and “inactive”.
For `NC(=O)C1CCN(C2=C(Cl)C(=O)c3ccccc3C2=O)CC1`, in that order: 17.9 µM, 16.6 µM and 17.3 µM.
As for `COC(=O)c1ccc(OCC2c3cc(OC)c(OC)cc3CCN2C(=O)c2ccco2)cc1` (centres undefined), the IC50 in the experiment on PEG-3 [1] (setting [3]) is 25.2 µM; in the experiment with PEG-3 [1] (setting [4]), 13.6 µM; on PEG-3 [2] it was 19.4 µM.
Taken in the same sequence, the figures for `CCc1nc(Sc2nnnn2-c2ccccc2)c2c3c(sc2n1)CCCC3` were 24.7 µM, 16.3 µM and “inactive”.
For `COc1ccc(-n2cc(CNC3CCN(C)CC3)c(-c3cccc(F)c3)n2)cc1`, in that order: 26 µM, 15.3 µM and “inactive”.
Taken in the same sequence, the figures for `CCOC(=O)c1cccc(Nc2nc(-c3cccnc3)nc3ccccc23)c1` were 12.1 µM, 11.4 µM and 11.8 µM.
With `Cc1ccc(C)c(NP(=O)(Oc2ccccc2)Oc2ccccc2)c1`, the IC50 in the experiment with PEG-3 [1] (setting [3]) was 28.7 µM; in the experiment on PEG-3 [1] (setting [4]) it was 19.1 µM. In addition, the IC50 entry at PEG-3 [2] is “inactive”.
For `Cc1c(OCC(=O)NC2CC(C)(C)NC(C)(C)C2)ccc2c1oc(=O)c1ccccc12`, in that order: 43.5 µM, over 100 µM and “inactive”.
As to `CC(NNC(=S)N1CCN(c2ccccn2)CC1)c1nccc2ccccc12` (centres undefined), the figures for the IC50 in the experiment with PEG-3 [1] (setting [3]) and in the experiment with PEG-3 [1] (setting [4]) were 15.2 µM and 36 µM, respectively. Moreover, on PEG-3 [2], the IC50 result was “inactive”.
Taken in the same sequence, the figures for `COc1ccc(C23CC4CC(CC(C4)C2)C3)cc1C(=O)NCCN(C)C` were 20.6 µM, 29.9 µM and “inactive”.
Taken in the same sequence, the figures for `CCOC(=O)c1ccc(NC(=O)C2CCCN(S(=O)(=O)c3ccc(F)cc3)C2)cc1` (centres undefined) were 20.9 µM, 43.1 µM and “inactive”.
For `CN(CC(=O)Nc1ccc(Cl)c(C(F)(F)F)c1)C(=O)c1cc(-c2ccncc2)nc2ccccc12`, in that order: 16.2 µM, 15.9 µM and 16.1 µM.
With `O=c1cc2oc3cc(O)c(O)cc3c(-c3ccccc3[N+](=O)[O-])c-2cc1O`, the values for the IC50 with PEG-3 [1] (setting [3]), with PEG-3 [1] (setting [4]) and on PEG-3 [2] were 19 µM, 19.1 µM and 19 µM, respectively.
For `c1ccc(CN=C(NCc2ccccc2)NCc2ccccc2)cc1`, the concentration for half-maximal inhibition (IC50) in the experiment with PEG-3 [1] (setting [3]) came out at 23.4 µM; in the experiment on PEG-3 [1] (setting [4]), 41.9 µM. Besides, the IC50 entry at PEG-3 [2] is “inactive”.
For `COc1ccc(C2c3ccc4ccccc4c3Oc3ncn(CCO)c(=N)c32)cc1OC` (centres undefined), in that order: 15.6 µM, 13.7 µM and 14.7 µM.
For `c1ccc(CN2CCC(Nc3nc(-c4cccnc4)nc4ccccc34)CC2)cc1`, in that order: 20.2 µM, 26.7 µM and “inactive”.
For `O=Nc1c(O)ccc2cc(S(=O)(=O)O)ccc12`, in that order: 9.17 µM, 14.2 µM and 11.7 µM.
Turning to `COCC(C)n1c(C)cc(C(=O)COC(=O)c2cccn2C)c1C` (centres undefined), the half-maximal inhibitory concentration (IC50) with PEG-3 [1] (setting [3]) was 32.8 µM; with PEG-3 [1] (setting [4]) it was over 100 µM. Also, the IC50 result at PEG-3 [2] is “inactive”.
Consider `NCCc1c(-c2ccccc2)n(-c2ccccc2)c2ccccc12`, for which the IC50 is 17.4 µM in the experiment with PEG-3 [1] (setting [3]), 8.4 µM in the experiment on PEG-3 [1] (setting [4]) and 12.9 µM at PEG-3 [2].
Taken in the same sequence, the figures for `CCOC(=O)/C(=C\c1ccccc1)C(=O)CCN1CCOCC1` were 16.6 µM, 9.98 µM and 13.3 µM.
Consider `Cc1nn(C(C)(C)C)c(C)c1/C=N/OC(=O)Nc1ccc(Cl)cc1`, for which the concentration for half-maximal inhibition (IC50) with PEG-3 [1] (setting [3]) is 6.13 µM; in the experiment with PEG-3 [1] (setting [4]), under 0.2 µM; on PEG-3 [2], 3.17 µM.
For the molecule `COc1ccc(CN(C)C(=O)c2cc(-c3ccc(C)cc3C)nc3ccccc23)c(OC)c1OC`, the results for the IC50 with PEG-3 [1] (setting [3]), in the experiment with PEG-3 [1] (setting [4]) and at PEG-3 [2] were 14.9 µM, 24.8 µM and 19.8 µM, respectively.
For `COC(=O)c1ccccc1-c1ccc(/C=N/Nc2nc(N3CCCC3)nc(N3CCCC3)n2)o1`, in that order: 26.8 µM, 34.7 µM and “inactive”.
For `Oc1ccc(C23CCCC2C2(CCCC2)c2ccc(O)cc2O3)c(O)c1` (centres undefined), in that order: 27.2 µM, 54.4 µM and “inactive”.
For `O=C1c2ccccc2S(=O)(=O)N1Cc1nc2ccccc2s1`, in that order: 8.32 µM, 14.3 µM and 11.3 µM.
On to `CCn1c(C)cc(C(=O)COC(=O)c2ccccc2[N+](=O)[O-])c1C`, for which the half-maximal inhibitory concentration (IC50) was 35.8 µM in the experiment with PEG-3 [1] (setting [3]), 1.77 µM with PEG-3 [1] (setting [4]) and 18.8 µM on PEG-3 [2].
Taken in the same sequence, the figures for `O=S(=O)(CC(CN1CCCCC1)N1CCCCC1)c1ccccc1` (centres undefined) were 38.2 µM, 18.2 µM and “inactive”.
For `CC1=CC(C)[C@H](/C=N/n2c(=O)[nH]c3c([nH]c4ccc(Br)cc43)c2=O)C(C)C1` (some centres undefined), in that order: over 100 µM, 5.42 µM and “inactive”.
For `CSc1ccc2c(c1)C(N1CCN(C)CC1)Cc1ccccc1S2` (centres undefined), in that order: 16.9 µM, 6.17 µM and 11.6 µM.
For the molecule `NC(c1csc(Nc2nccc(C(F)(F)F)n2)n1)C1CCCCC1` (centres undefined), the IC50 with PEG-3 [1] (setting [3]) is 19.1 µM; in the experiment with PEG-3 [1] (setting [4]), 12.8 µM; on PEG-3 [2], 15.9 µM.
For `CN(C)CCNc1ccc2nnn3c4ccc(O)cc4c(=O)c1c23`, in that order: 45.4 µM, 43 µM and “inactive”.

(Values after PubChem BioAssay AID624167 (Sanford-Burnham Center for Chemical Genomics, 2012).)
